Reference: US10301320B2, “Compositions and methods of modulating 15-PGDH activity” (CASE WESTERN RESERVE UNIVERSITY, priority 2012, dated 2019)
Read-outs that look alike come from different tables or passages of the source.

Columns and labels:
[1] = target: recombinant 15-PGDH protein (Homo sapiens (Human), UniProt P15428); assay: Inhibition of enzymatic activity of recombinant 15-PGDH in vitro; format: biochemical; details: read-out: Enzyme inhibition % ([…]), Table 18, […] compound;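 note: activity of recombinant human 15-PGDH assayed in vitro using PGE2 as the substrate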
[2] = test system: V9m reporter cell line expressing a 15-PGDH luciferase fusion construct; assay: 15-PGDH-luciferase fusion gene reporter induction, V9m cell line; format: cell-based; details: for percent reporter induction over basal at […]: read-out: V9M-SC3 Reporter activity % ([…]), Table 18, read-out: V9M-SC3 Reporter activity % (7.5 μM)
Excerpt: (§1) These cell lines are Vaco-9m (V9m), LS174T, Vaco503 (V503). […] Value of 1.0 on the Y-axis is the basal level of reporter activity in cells treated with drug free DMSO vehicle.
(§2) This Example provides data on a group of structural analogues of SW033291. Data provided includes level of induction of a 15-PGDH-luciferase fusion gene reporter, recorded as % increased luciferase activity over basal level, in three colon cancer cell lines, V9m, V503, and LS174T, engineered to contain the reporter, and treated with either 2.5 uM or 7.5 uM compound (i.e., Values are recorded on a scale where 100 indicates of doubling of luciferase activity over baseline level).
(§3) FIGS. 27(A-C) show graphs that show the level of compound's activity in inducing the 15-PGDH-luciferase fusion reporter in three different test cell line backgrounds, V9m, LS174T, and V503. Each compound was tested at two concentrations, 2.5 uM, and 7.5 uM. Y-axis is luciferase activity.
(§4) Data provided include level of induction of a 15-PGDH-luciferase fusion gene reporter, recorded as % induction of luciferase activity over basal level, in three colon cancer cell lines, V9m, V503, and LS174T, engineered to contain the reporter, and treated with either 2.5 uM or 7.5 uM compound. […] Additionally, for selected compounds is recorded the decrease in PGE2 levels in the media of compound treated A549 cells that have been stimulated with IL-1 beta. Additionally recorded for selected compounds is the effect on A549 cell viability as measured by a CellTiter-Glo assay, and the effect of compounds on A549 cell colony formation.

[3] = test system: LS174T reporter cell line expressing a 15-PGDH luciferase fusion construct; assay: 15-PGDH-luciferase fusion gene reporter induction, LS174T cell line; format: cell-based; details: Homo sapiens
Excerpt: as §1, §2, §3, §4

[4] = test system: Vaco503 reporter cell line expressing a 15-PGDH luciferase fusion construct; assay: 15-PGDH-luciferase fusion gene reporter induction, Vaco503 (V503) cell line; format: cell-based
Excerpt: as §1, §2, §3, §4

[5] = read-out: Enzyme inhibition % (2.5 μM)
[6] = read-out: Enzyme inhibition % (7.5 μM)
[7] = read-out: V9M reporter activity ([…]), […], % increased luciferase activity over basal level, 100 = doubling, read-out: V9M reporter activity (2.5 uM)
[8] = read-out: V9M reporter activity ([…]), […], % increased luciferase activity over basal level, read-out: V9M reporter activity (7.5 uM)
[9] = read-out: V503 reporter activity ([…]), […], % increased luciferase activity over basal level, read-out: V503 reporter activity (2.5 uM)
[10] = read-out: V503 reporter activity ([…]), […], % increased luciferase activity over basal level, read-out: V503 reporter activity (7.5 uM)
[11] = read-out: LS174T reporter activity ([…]), […], % increased luciferase activity over basal level, read-out: LS174T reporter activity (2.5 uM)
[12] = read-out: LS174T reporter activity ([…]), […], % increased luciferase activity over basal level, read-out: LS174T reporter activity (7.5 uM)
[13] = read-out: V9M reporter activity ([…]), Table 17, […], % induction over basal level, read-out: V9M reporter activity (2.5 μM)
[14] = read-out: V9M reporter activity ([…]), Table 17, […], read-out: V9M reporter activity (7.5 μM)
[15] = read-out: V503 reporter activity ([…]), Table 17, […], read-out: V503 reporter activity (2.5 μM)
[16] = read-out: V503 reporter activity ([…]), Table 17, […], read-out: V503 reporter activity (7.5 μM)
[17] = read-out: 1S174T reporter activity ([…]), Table 17, […], read-out: 1S174T reporter activity (7.5 μM)
[18] = read-out: LS174T reporter activity ([…]), Table 17, […], read-out: LS174T reporter activity (2.5 μM)

Chain of recombinant 15-PGDH protein (P15428 whole entry, the tested form may be a part): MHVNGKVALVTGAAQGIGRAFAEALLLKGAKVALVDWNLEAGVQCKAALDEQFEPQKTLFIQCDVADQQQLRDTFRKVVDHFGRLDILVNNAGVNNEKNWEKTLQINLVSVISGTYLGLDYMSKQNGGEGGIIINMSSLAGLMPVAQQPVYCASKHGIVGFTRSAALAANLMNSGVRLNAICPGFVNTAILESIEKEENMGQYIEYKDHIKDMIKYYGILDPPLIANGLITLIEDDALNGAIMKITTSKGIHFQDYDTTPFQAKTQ

SMILES	inhibition at […] [1, 5]	inhibition at […] [1, 6]	percent reporter induction over basal at […] ([2]; […])	further results
COc1ccc(OC)c(N(CC(=O)NC2CCCCC2)S(=O)(=O)c2ccccc2)c1 [333446-93-8]	-5.31%	5.85%	44%	–
COC(=O)c1ccccc1NC(=O)CN(c1cc(OC)ccc1OC)S(=O)(=O)c1ccccc1 [333449-58-4]	9.72%	-3.12%	71.2%	–
COc1ccc(OC)c(N(CC(=O)Nc2cccnc2)S(C)(=O)=O)c1 [527699-66-7]	-20.6%	27.9%	-37.2%	–
COc1ccc(OC)c(N(CC(=O)Nc2cccnc2)S(=O)(=O)c2ccc(OC)c(OC)c2)c1 [680599-58-0]	31.8%	50.7%	-22.5%	–
Nc1c([S+]([O-])Cc2ccccc2)sc2nc(-c3cccs3)cc(-c3ccccc3)c12 (stereo not shown) [SW033292]	–	–	–	activation at […] [2, 7]: 1.51%
Nc1c(C(=O)O)sc2nc(-c3cccs3)cc(-c3ccccc3)c12 [SW206979, 3-Amino-4-phenyl-6-(thiophen-2-yl)thieno[2,3-b]pyridine-2-carboxylic acid]	–	–	–	activation at […] [2, 7]: -12.6%; activation at […] [2, 8]: -20.6%; activation at […] [4, 9]: 21.7%; activation at […] [4, 10]: 42.9%; activation at […] [3, 11]: 34.3%; activation at […] [3, 12]: 32.8%
CCCC[S+]([O-])c1ncccc1[N+](=O)[O-] (stereo not shown) [SW208069, 2-(butylsulfinyl)-3-nitropyridine]	–	–	–	activation at […] [2, 7]: -14.5%; activation at […] [2, 8]: 0.23%; activation at […] [4, 9]: 19.5%; activation at […] [4, 10]: 15.1%; activation at […] [3, 11]: 19.5%; activation at […] [3, 12]: 15.1%
COc1ccc(N(CC(=O)Nc2ccccc2Br)S(=O)(=O)c2ccc(NC(C)=O)cc2)cc1 [compound 771064]	–	–	–	activation at […] [2, 13]: 43.3%; activation at […] [2, 14]: -19.2%; activation at […] [4, 15]: -13.8%; activation at […] [4, 16]: -24.8%; activation at […] [3, 17]: -29.6%; activation at […] [3, 18]: -2.11%
COc1ccc(S(=O)(=O)N(CC(=O)Nc2ccccc2Br)c2cc(Cl)ccc2OC)cc1OC [compound 771081]	–	–	–	activation at […] [2, 13]: -14.2%; activation at […] [2, 14]: 7.58%; activation at […] [4, 15]: 31.9%; activation at […] [4, 16]: 51.7%; activation at […] [3, 17]: 15.4%; activation at […] [3, 18]: 5.74%
COc1ccc(S(=O)(=O)N(CC(=O)Nc2cccc(Br)c2)c2cc(Cl)ccc2OC)cc1OC [compound 771130]	–	–	–	activation at […] [2, 13]: 8.67%; activation at […] [2, 14]: 5.84%; activation at […] [4, 15]: -10.2%; activation at […] [4, 16]: -3.48%; activation at […] [3, 17]: -0.48%; activation at […] [3, 18]: 8.66%
COc1ccc(S(=O)(=O)N(CC(=O)Nc2ccc(Br)cc2)c2cc(Cl)ccc2OC)cc1OC [compound 771432]	–	–	–	activation at […] [2, 13]: -7.11%; activation at […] [2, 14]: -3.13%; activation at […] [4, 15]: 33.7%; activation at […] [4, 16]: 42.8%; activation at […] [3, 17]: 4.24%; activation at […] [3, 18]: 3.86%
COc1ccc(S(=O)(=O)N(CC(=O)Nc2cccc(N(C)S(C)(=O)=O)c2)c2cc(Cl)ccc2OC)cc1OC [compound 924787]	–	–	–	activation at […] [2, 13]: -1.45%; activation at […] [2, 14]: 18.1%; activation at […] [4, 15]: 21.9%; activation at […] [4, 16]: 48%; activation at […] [3, 17]: 13.1%; activation at […] [3, 18]: 4.32%
COc1ccc(N(CC(=O)Nc2ccccc2Br)S(=O)(=O)c2ccccc2[N+](=O)[O-])c(OC)c1 [compound 1002065]	–	–	–	activation at […] [2, 13]: 7.38%; activation at […] [2, 14]: 18.6%; activation at […] [4, 15]: 38.1%; activation at […] [4, 16]: 52.5%; activation at […] [3, 17]: 15.2%; activation at […] [3, 18]: 9.9%

Further lines, with some results ahead:

inhibition at […] [1, 5]	inhibition at […] [1, 6]	SMILES	percent reporter induction over basal at […] ([2]; […])	further results
23.5%	33.4%	COc1ccc(N(CC(=O)Nc2cccnc2)S(=O)(=O)c2ccccc2)c(OC)c1 [310875-38-8]	-16.4%	–
18.7%	34.7%	COc1ccc(OC)c(N(CC(=O)Nc2cccc(Cl)c2)S(=O)(=O)c2ccccc2)c1 [311315-25-0]	–	activation at […] ([3]; read-out: Ls174T-SC1 reporter activity, % ([…]), Table 18, […], read-out: Ls174T-SC1 reporter activity, % (2.5μM)): 62.6%; activation at […] ([3]; read-out: Ls174T-SC1 reporter activity, % ([…]), Table 18, […], read-out: Ls174T-SC1 reporter activity, % (7.5 μM)): 75.8%
34%	–	COc1ccc(OC)c(N(CC(=O)Nc2ccc(C)cc2)S(=O)(=O)c2ccccc2)c1 [311333-86-5]	117%	–
67.4%	82.1%	COc1ccc(Cl)cc1N(CC(=O)Nc1cccnc1)S(=O)(=O)c1ccccc1 [328012-52-8]	0.51%	–
9.65%	17.5%	O=C(CN(c1ccccc1)S(=O)(=O)c1ccccc1)Nc1cccnc1 [331727-07-2]	120%	–
11%	5.37%	COc1cccc(N(CC(=O)Nc2cccnc2)S(=O)(=O)c2ccccc2)c1 [335392-39-7]	7.18%	–
35.5%	37.4%	COc1ccc(OC)c(N(CC(=O)Nc2ccc(Cl)cc2)S(=O)(=O)c2ccccc2)c1 [339589-53-6]	4.25%	–
19.1%	22%	COc1ccc(OC)c(N(CC(=O)Nc2ccc(Cl)c(Cl)c2)S(=O)(=O)c2ccccc2)c1 [339589-55-8]	8%	–
8.95%	34.8%	COc1ccccc1N(CC(=O)Nc1cccnc1)S(=O)(=O)c1ccccc1 [367929-80-4]	-19%	–
10.8%	12.1%	COc1ccc(N(CC(=O)Nc2cccnc2)S(=O)(=O)c2ccccc2)cc1 [418783-65-0]	67.2%	–
39.8%	56.4%	COc1ccc(OC)c(N(CC(=O)Nc2ccc(F)cc2)S(=O)(=O)c2ccccc2)c1 [426231-26-7]	2.5%	–
3.76%	8.67%	CCOc1ccc(N(CC(=O)Nc2cccnc2)S(=O)(=O)c2ccccc2)cc1 [428473-22-7]	2.05%	–
9.28%	3.35%	CCc1ccc(N(CC(=O)Nc2cccnc2)S(=O)(=O)c2ccccc2)cc1 [461439-84-9]	-41.8%	–
67.4%	84.6%	COc1ccc(OC)c(N(CC(=O)Nc2cccnc2)S(=O)(=O)c2ccc(C)cc2)c1 [505072-23-1]	71.5%	–
-8.22%	10.2%	CCc1ccccc1N(CC(=O)Nc1cccnc1)S(=O)(=O)c1ccccc1 [528580-69-0]	-0.5%	–
21.7%	9.25%	COc1ccc(OC)c(N(CC(=O)Nc2ccccc2C(N)=O)S(=O)(=O)c2ccccc2)c1 [530107-57-4]	116%	–
10.1%	13.1%	O=C(CN(c1ccc2c(c1)OCCO2)S(=O)(=O)c1ccccc1)Nc1cccnc1 [701217-00-7]	79.5%	–
16.4%	49.2%	O=C(CN(c1cc(Cl)ccc1Cl)S(=O)(=O)c1ccccc1)Nc1cccnc1 [833428-03-8]	17.4%	–
